{"source": "patent US4329453A", "about": "“Cephalosporin antibiotic” (Glaxo Group Limited, priority 1979, dated 1982)", "key": {"stability": {"test": "stability", "assay_type": "physicochemical", "source_text": "These properties render the hydrate of value in pharmaceutical use.\nThe salts for use in the preparation of the new pentahydrate according to the invention may be prepared by a process disclosed in the above-mentioned U.K. Patent Specification No. 2025398, i.e. by a process corresponding to the method above mentioned."}, "bacteria [1]": {"test_system": "bacteria", "test": "antibiotic activity in vitro (broad spectrum)", "assay_type": "cell-based"}, "early clinical results": {"test": "early clinical results", "assay_type": "in vivo, human"}, "nephrotoxicity in rats": {"test": "nephrotoxicity in rats", "assay_type": "in vivo", "conditions": "dosages of 2.0 g/kg"}, "[2]": {"conditions": "especially at elevated temperatures, U.K. Patent Specification No. 2025398; cited from earlier work"}, "gram-negative organisms": {"test_system": "gram-negative organisms", "conditions": "as described in U.K. Patent Specification No. 2025398; cited from earlier work"}, "indole-positive Proteus": {"test_system": "indole-positive Proteus", "test": "activity against indole-positive Proteus", "assay_type": "cell-based"}, "[3]": {"test": "acute toxicity tests in mice", "conditions": "mouse, in vivo"}, "gram-negative bacteria": {"test_system": "gram-negative bacteria", "test": "experimental infections in mice with gram-negative bacteria", "assay_type": "in vivo"}, "Pseudomonas organisms": {"test_system": "Pseudomonas organisms", "test": "activity against Pseudomonas organisms", "assay_type": "cell-based"}, "Providence": {"test_system": "Providence", "test": "activity against Providence", "assay_type": "cell-based"}, "bacteria [4]": {"test_system": "bacteria", "conditions": "as described in U.K. Patent Specification No. 2025398; cited from earlier work"}, "Pseudomonas aeruginosa": {"test_system": "Pseudomonas aeruginosa", "test": "experimental infections in mice with Pseudomonas aeruginosa", "assay_type": "in vivo"}, "[5]": {"test_system": "β-lactamase-producing gram-negative strains", "conditions": "as described in U.K. Patent Specification No. 2025398; cited from earlier work"}, "[6]": {"test": "distribution and levels in small rodents after subcutaneous injection", "assay_type": "in vivo"}, "[7]": {"test": "pharmacokinetic studies in human volunteers"}, "Serratia": {"test_system": "Serratia", "test": "activity against Serratia", "assay_type": "cell-based"}, "pathogenic bacteria": {"test_system": "pathogenic bacteria", "test": "antibiotic properties of the crystalline pentahydrate", "assay_type": "cell-based", "conditions": "compared with compound (I)"}}, "note": "Counter-ions that a name gives are not always drawn."}
{"smiles": "CC(C)(O/N=C(\\C(=O)N[C@@H]1C(=O)N2C(C(=O)[O-])=C(C[n+]3ccccc3)CS[C@H]12)c1csc(N)n1)C(=O)O", "note": "[bishydrochloride, (6R,7R)-7-[(Z)-2-(2-Aminothizol-4-yl)-2-(2-carboxyprop-2-oxyimino)acetamidol]-3-(1-pyridiniummethyl)ceph-3-em-4-carboxylate bishydrochloride]", "values": [{"measurement": "stability of crystalline bishydrochloride", "setting": "stability; crystallised from acetone and formic acid", "result": "highly stable"}]}
{"smiles": "CC(C)(O/N=C(\\C(=O)N[C@@H]1C(=O)N2C(C(=O)[O-])=C(C[n+]3ccccc3)CS[C@H]12)c1csc(N)n1)C(=O)O", "note": "[ceftazidime, (6R,7R)-7-[(Z)-2-(2-aminothiazol-4-yl)-2-(2-carboxyprop-2-oxyimino)acetamido]-3-(1-pyridiniummethyl)ceph-3-em-4-carboxylate]", "values": [{"measurement": "bactericidal action", "setting": "bacteria [1]; at concentrations close to the minimum inhibitory concentration", "result": "rapidly bactericidal"}, {"measurement": "effect of human serum on antibacterial properties", "setting": "bacteria [1]; human serum", "result": "not impaired by human serum"}, {"measurement": "effect of increased inocula", "setting": "bacteria [1]; increased inocula", "result": "low"}, {"measurement": "antibiotic properties in the clinic", "setting": "early clinical results", "result": "reproduces in the clinic the excellent antibiotic properties"}, {"measurement": "nephrotoxicity", "setting": "nephrotoxicity in rats", "result": "No nephrotoxicity has been observed"}, {"measurement": "stability of amorphous solid", "setting": "[2]", "result": "not particularly satisfactory"}, {"measurement": "activity against gram-negative organisms", "setting": "gram-negative organisms", "result": "unusually high activity"}, {"measurement": "activity against indole-positive Proteus", "setting": "indole-positive Proteus", "result": "excellent activity"}, {"measurement": "LD50", "setting": "[3]", "result": "> 6000", "unit": "mg/kg"}, {"measurement": "treatment of experimental infections with gram-negative bacteria", "setting": "gram-negative bacteria", "result": "successfully treated"}, {"measurement": "activity against Pseudomonas organisms", "setting": "Pseudomonas organisms", "result": "excellent activity"}, {"measurement": "activity against Providence", "setting": "Providence", "result": "excellent activity"}, {"measurement": "broad spectrum antibiotic activity", "setting": "bacteria [4]", "result": "broad spectrum antibiotic activity"}, {"measurement": "protection against strains of Pseudomonas aeruginosa", "setting": "Pseudomonas aeruginosa", "result": "excellent protection"}, {"measurement": "protection compared with treatment with an aminoglycoside such as amikacin", "setting": "Pseudomonas aeruginosa; versus amikacin", "result": "comparable"}, {"measurement": "activity against β-lactamase-producing gram-negative strains", "setting": "[5]", "result": "unusually high activity"}, {"measurement": "distribution in the bodies of small rodents", "setting": "[6]", "result": "well distributed"}, {"measurement": "levels after subcutaneous injection", "setting": "[6]; subcutaneous injection", "result": "useful therapeutic levels"}, {"measurement": "pharmacokinetic properties", "setting": "[7]", "result": "good pharmacokinetic properties"}, {"measurement": "serum half-life", "setting": "[7]", "result": "long"}, {"measurement": "serum levels after injection", "setting": "[7]; injection", "result": "high and long lasting serum levels"}, {"measurement": "activity against Serratia", "setting": "Serratia", "result": "excellent activity"}]}
{"smiles": "CC(C)(O/N=C(\\C(=O)N[C@@H]1C(=O)N2C(C(=O)[O-])=C(C[n+]3ccccc3)CS[C@H]12)c1csc(N)n1)C(=O)O", "note": "[crystalline pentahydrate, (6R, 7R)-7-[(Z)-2-(2-aminothiazol-4-yl)-2-(2-carboxyprop-2-oxyimino)acetamido]-3-(1-pyridiniummethyl)ceph-3-em-4-carboxylate pentahydrate]", "values": [{"measurement": "antibiotic properties", "setting": "pathogenic bacteria", "result": "exhibits the antibiotic properties of the above-mentioned compound (I)"}, {"measurement": "crystallinity and stability (quality)", "setting": "stability; new hydrate", "result": "superior quality"}, {"measurement": "stability on storage", "setting": "stability; stored at 50° C. for an extended period", "result": "remarkably stable"}]}
